“Also recorded” adds a separate entry of the source.
What was measured:
CD-1 mice [1] = test: Bone calcium mobilization: serum calcium of mice fed 0.02% calcium diet after single oral dose; type: in vivo; conditions: for Bone Calcium Mobilization (serum calcium): single oral gavage, 0.02% calcium diet; for Bone calcium mobilization activity (bone resorption in vivo), in words: single oral dose, mice on 0.02% calcium diet
Description: Goal: Determine whether or not TMM has bone calcium mobilization activity and how it compares to 1,25(OH)2D3 and 2-methylene-19-nor-20(S)-1α, 25-(OH)2D3 (hereinafter referred to as 2MD).
5-6 week old CD-1 mice were placed in the +D mouse room and fed chow diet. They were allowed to acclimate for 5 days before being switched to a purified diet described by Yang et al (Arch. Biochem. Biphys. 303, 98, 1993) containing 0.02% calcium and 0.3% P. Two days after the diet switch, dose administration began. Experimental Design:
All animals were weighed prior to dosing. The animals were divided into groups containing 5 animals/group. All animals were administered the drug by oral gavage one time. The dose was delivered in 100 μl Neobee oil/25 g mouse. […] The rise in serum calcium comes from bone mobilization only since no calcium is available from the intestine.
Mice fed a 0.02% calcium diet can only elevate their serum calcium levels by resorbing bone because no calcium is available through intestinal absorption. […] At lower doses, there was no significant elevation of serum calcium. […] Thus, the importance of the 25-hydroxyl for bone calcium mobilization is illustrated.

[2] = previous work; cited from earlier work
CD-1 mice [3] = test: Intestinal calcium transport: serum calcium of alendronate-treated mice on 0.47% calcium diet; type: in vivo; conditions: FIG. 3
Description: FIG. 3 is a graph illustrating serum calcium versus time of mice injected with vehicle plus alendronate, with 1α,25-dihydroxyvitamin D3 plus alendronate, or with 2-methylene-19-nor-20(S)-25-methyl-1α-hydroxycalciferol (TMM) plus alendronate. Since alendronate blocks bone resorption the rise in serum calcium reflects only intestinal absorption.
In this measurement, alendronate is used to block bone resorption so the rise in serum calcium is because of increased calcium absorption from the intestine.
Goal: Determine whether or not TMM has intestinal calcium transport activity and how it compares to 1,25(OH)2D3.
5-6 week old CD-1 mice were placed in the +D mouse room and fed chow diet. They were allowed to acclimate for 7 days before being switched to a diet containing 0.47% calcium.
All animals were weighed prior to dosing and divided into groups containing 5 animals/treatment group. […] Once all time points were collected, the serum was diluted 1:50 in 0.1% Lanthum Chloride and analyzed by atomic absorption spectrometry for determination of total serum calcium levels. • Group 1: Neobee oil+Alendronate (1.75 mg/kg bw) • Group 2: 40.5 ug 1,25(OH)2D3/kg bw+Alendronate (1.75 mg/kg bw) • Group 3: 4.5 ug TMM/kg bw+Alendronate (1.75 mg/kg bw) • Group 4: 13.5 ug TMM/kg bw+Alendronate (1.75 mg/kg bw) • Group 5: 40.5 ug TMM/kg bw+Alendronate (1.75 mg/kg bw) Results: […]

[4] = tested on: porcine intestinal vitamin D receptor; test: Competitive binding to the porcine intestinal vitamin D receptor, displacement of [3H]-1,25-(OH)2-D3; conditions: compared with the native hormone 1,25-(OH)2D3; FIG. 1
Protocol: FIG. 1 is a graph illustrating the relative activity of 2-methylene-19-nor-20(S)-25-methyl-1α-hydroxycalciferol or 1α,25-dihydroxyvitamin D3 to compete for binding of [3H]-1,25-(OH)2—D3 to the vitamin D pig intestinal nuclear receptor;
Competitive binding of the analog to the porcine intestinal receptor was carried out by the method described by Dame et al (Biochemistry 25, 4523-4534, 1986).
Competitive binding of 1α, 25-(OH)2D3 and the synthesized vitamin D analog to the porcine intestinal vitamin D receptor was carried out in triplicate on two different occasions. ED50 values can be derived from dose-response curves (FIG. 1) and represent the analog concentration required for 50% displacement of the radiolabeled 1α,25-(OH)2D3 from the receptor protein. Binding ratio can then be determined from the ratio of the analog average ED50 to the ED50 for 1α,25-(OH)2D3.

HL-60 promyelocytes = test: Differentiation of HL-60 promyelocytes into monocytes (NBT reduction); type: cell-based; conditions: compared with 1,25-(OH)2D3; FIG. 2
Protocol: FIG. 2 is a graph illustrating the percent HL-60 cell differentiation as a function of the concentration of 2-methylene-19-nor-20(S)-25-methyl-1α-hydroxycalciferol or 1α,25-dihydroxyvitamin D3; and
The differentiation of HL-60 promyelocytes into monocytes was determined as described by Ostrem et al (J. Biol. Chem. 262, 14164-14171, 1987).
Induction of differentiation of HL-60 promyelocytes to monocytes by 1α,25-(OH)2D3 and the synthesized vitamin D analog was determined by measuring the percentage of cells reducing nitro blue tetrazolium (NBT). The experiment was repeated three times. The values ED50 can be derived from dose-response curves (FIG. 2) and represent the analog concentration capable of inducing 50% maturation. Differentiation activity ratio can then be determined from the ratio of the analog average ED50 to the ED50 for 1α,25-(OH)2D3.

Structure (SMILES) | Bone calcium mobilization activity (bone resorption in vivo), in words (CD-1 mice [1]; Table 1) | Bone Calcium Mobilization (serum calcium) (CD-1 mice [1]; 0.5 μg/kg, 0 hr (predose)) | Bone Calcium Mobilization (serum calcium) (CD-1 mice [1]; 0.5 μg/kg, 24 hr) | Bone Calcium Mobilization (serum calcium) (CD-1 mice [1]; 0.5 μg/kg, 48 hr) | Bone Calcium Mobilization (serum calcium) (CD-1 mice [1]; 0.5 μg/kg, 72 hr) | Bone Calcium Mobilization (serum calcium) (CD-1 mice [1]; 1.5 μg/kg, 0 hr (predose)) | Bone Calcium Mobilization (serum calcium) (CD-1 mice [1]; 1.5 μg/kg, 24 hr) | Bone Calcium Mobilization (serum calcium) (CD-1 mice [1]; 1.5 μg/kg, 48 hr) | Bone Calcium Mobilization (serum calcium) (CD-1 mice [1]; 1.5 μg/kg, 72 hr) | Bone Calcium Mobilization (serum calcium) (CD-1 mice [1]; 4.5 μg/kg, 0 hr (predose)) | Bone Calcium Mobilization (serum calcium) (CD-1 mice [1]; 4.5 μg/kg, 24 hr) | Bone Calcium Mobilization (serum calcium) (CD-1 mice [1]; 4.5 μg/kg, 48 hr) | Bone Calcium Mobilization (serum calcium) (CD-1 mice [1]; 4.5 μg/kg, 72 hr) | Bone Calcium Mobilization (serum calcium) (CD-1 mice [1]; 13.5 μg/kg, 0 hr (predose)) | Bone Calcium Mobilization (serum calcium) (CD-1 mice [1]; 13.5 μg/kg, 24 hr) | Bone Calcium Mobilization (serum calcium) (CD-1 mice [1]; 13.5 μg/kg, 48 hr) | Bone Calcium Mobilization (serum calcium) (CD-1 mice [1]; 13.5 μg/kg, 72 hr) | further results
C=C1/C(=C\C=C2/CCC[C@]3(C)[C@@H]([C@H](C)CCCC(C)(C)O)CC[C@@H]23)C[C@@H](O)C[C@@H]1O [1α,25(OH)2D3, 1α,25-dihydroxyvitamin D3] | effective at 50 μg/kg bw and 450 μg/kg bw | – | – | – | – | – | – | – | – | – | – | – | – | – | – | – | – | Bone Calcium Mobilization (serum calcium) (CD-1 mice [1]; 50 μg/kg, 0 hr (predose)): 8.8 ± 0.2 mg/dL; Bone Calcium Mobilization (serum calcium) (CD-1 mice [1]; 50 μg/kg, 24 hr): 10.9 ± 0.1 mg/dL; Bone Calcium Mobilization (serum calcium) (CD-1 mice [1]; 50 μg/kg, 48 hr): 9.6 ± 0.3 mg/dL; Bone Calcium Mobilization (serum calcium) (CD-1 mice [1]; 50 μg/kg, 72 hr): 9.1 ± 0.2 mg/dL; Bone Calcium Mobilization (serum calcium) (CD-1 mice [1]; 450 μg/kg, 0 hr (predose)): 8.8 ± 0.2 mg/dL; Bone Calcium Mobilization (serum calcium) (CD-1 mice [1]; 450 μg/kg, 24 hr): 11.6 ± 0.3 mg/dL; Bone Calcium Mobilization (serum calcium) (CD-1 mice [1]; 450 μg/kg, 48 hr): 11.4 ± 0.7 mg/dL; Bone Calcium Mobilization (serum calcium) (CD-1 mice [1]; 450 μg/kg, 72 hr): 9.4 ± 0.4 mg/dL; Intestinal calcium absorption activity relative to 2-methylene-19-nor-20(S)-1α, 25-(OH)2D3 [2]: about the same activity
C=C1[C@H](O)CC(=C/C=C2\CCC[C@]3(C)[C@@H]([C@@H](C)CCCC(C)(C)O)CC[C@@H]23)C[C@H]1O [2MD, 2-methylene-19-nor-20(S)-1α, 25-(OH)2D3] | – | 8.8 ± 0.3 mg/dL | 9.4 ± 0.2 mg/dL | 9.2 ± 0.2 mg/dL | 8.9 ± 0.2 mg/dL | 8.8 ± 0.2 mg/dL | 10.1 ± 0.1 mg/dL | 10.5 ± 0.2 mg/dL | 10.1 ± 0.2 mg/dL | 8.8 ± 0.0 mg/dL | 10.9 ± 0.2 mg/dL | 12.6 ± 0.5 mg/dL | 12.0 ± 0.4 mg/dL | 8.6 ± 0.1 mg/dL | 11.5 ± 0.4 mg/dL | 10.8 ± 0.5 mg/dL | 13.4 ± 0.6 mg/dL | –
C=C1[C@H](O)CC(=C/C=C2\CCC[C@]3(C)[C@@H]([C@@H](C)CCCC(C)(C)C)CC[C@@H]23)C[C@H]1O [TMM, 2-methylene-19-nor-20(S)-25-methyl-1α-hydroxycalciferol] | only at the highest dose caused bone resorption in vivo; also recorded: very little bone calcium mobilization activity | 8.7 ± 0.2 mg/dL | 8.8 ± 0.1 mg/dL | 8.7 ± 0.1 mg/dL | 8.7 ± 0.1 mg/dL | 8.7 ± 0.2 mg/dL | 8.7 ± 0.2 mg/dL | 8.6 ± 0.1 mg/dL | 8.9 ± 0.2 mg/dL | 8.5 ± 0.3 mg/dL | 9.0 ± 0.1 mg/dL | 8.9 ± 0.1 mg/dL | 8.8 ± 0.2 mg/dL | 8.8 ± 0.1 mg/dL | 9.7 ± 0.2 mg/dL | 9.9 ± 0.3 mg/dL | 9.5 ± 0.3 mg/dL | Intestinal calcium transport activity, in words (CD-1 mice [3]): more intestinal calcium transport activity than does 1,25(OH)2D3; also recorded: very strong effect on intestinal calcium absorption; Activity in raising serum calcium (bone calcium mobilization) relative to 1,25-(OH)2D3 (CD-1 mice [1]; compared with 1,25-(OH)2D3, Table 1): approximately equal to 1,25-(OH)2D3; also recorded: below that of the native hormone; Activity in raising serum calcium (bone calcium mobilization) relative to 2MD (CD-1 mice [1]; compared with 2MD, Table 1): one-tenth as active as 2MD; also recorded: fell far below; Binding to the vitamin D receptor relative to 1,25-(OH)2D3 [4]: one-tenth as well; HL-60 differentiation activity relative to 1,25-(OH)2D3 (HL-60 promyelocytes): essentially equal to that of 1,25-(OH)2D3

From patent US6894037B2, “2-methylene-19-nor-20(S)-25-methyl-1α-hydroxycalciferol and its uses” (Wisconsin Alumni Research Foundation, priority 2003, dated 2005)
